In patent publication US8722910B2, “Diyne compositions” (Evolva AG, priority 2009, dated 2014):
Converted amounts (≈) assume the structure as drawn.

Columns and labels:
[1] = system: C. albicans; assay: Mice infected systemically with C. albicans, oral dosing, kidney burden; assay type: in vivo; conditions: orally twice daily for 3 days, vs untreated
Description: Mice were infected systemically with C. albicans. Compound IV″ was administered orally twice daily for 3 days at 5 mg/kg or 10 mg/kg per dose. Kidney fungal burden decreased by 88% and 94% respectively, compared to the untreated control (as shown in FIG. 12 showing kidney fungal burden as determined by colony forming units (CFU) per gram of homogenised tissue).

[2] = system: B. dermatitidis; assay: Susceptibility of clinical dimorphic fungi (MIC); assay type: cell-based; conditions: B. dermatitidis (n = 30)
[3] = GVS moisture sorption; assay type: physicochemical; conditions: 25° C.
Description: Sorption isotherms were obtained using a Hiden IGASorp moisture sorption analyser, controlled by CFRSorp software. The sample temperature was maintained at 25° C. by a Huber re-circulating water bath. The humidity was controlled by mixing streams of dry and wet nitrogen, with a total flow rate of 250 ml.min-1. The relative humidity (RH) was measured by a calibrated Vaisala RH probe (dynamic range of 0-95% RH), located near the sample. The weight change, (mass relaxation) of the sample as a function of % RH was constantly monitored by the microbalance (accuracy ±0.001 mg). Typically 10-20 mg of sample was placed in a tared mesh stainless steel basket under ambient conditions. The sample was loaded and unloaded at 40% RH and 25° C. (typical
room conditions). A moisture sorption isotherm was performed. The software uses a least squares minimisation procedure together with a model of the mass
relaxation, to predict an asymptotic value. The measured mass relaxation value must be within 5% of that predicted by the software, before the next % RH value is selected. The sample was recovered after completion of the isotherm and re-analysed by XRPD.

[4] = system: Coccidioides spp.; assay: microbe, parasite or virus in culture; assay type: cell-based
[5] = system: H. capsulatum; assay: microbe, parasite or virus in culture; assay type: cell-based
[6] = system: A. niger; assay: Susceptibility of clinical Aspergillus isolates (MIC); assay type: cell-based; conditions: 24 h
Description: (§1) The efficacy of compound IV″ was investigated on 563 clinical isolates of 33 human fungal pathogens. […] For species with n≧10, the MIC90 (MIC, minimal inhibitory concentration) is given as ng/ml. For species with n≦10, the MIC range is given as ng/ml. 24 h and 48 h reads are indicated (Table 1).
(§2) Susceptibilities were determined according to the CLSI reference method M38-A2.

[7] = system: A. flavus; assay: as above; assay type: cell-based
Description: as §1, §2

[8] = system: all dermatophyte strains; assay: MIC and MFC range over all dermatophyte strains tested; assay type: cell-based, dermatophytes; conditions: Table 14 strains
[9] = system: T. terrestre; assay: In vitro antifungal activity vs. dermatophytes (MIC/MFC); assay type: cell-based; conditions: T. terrestre (n = 1)
[10] = system: C. lusitaniae; assay: In vitro antifungal activity vs. yeasts (MIC/MFC); assay type: cell-based; conditions: Clavispora lusitaniae, C. lusitaniae (n = 1)
[11] = system: C. albicans spores; assay: Effect on the germination of C. albicans (MTT); assay type: cell-based; conditions: drug added after 3 hours
[12] = system: T. mentagrophytes; assay: In vitro antifungal activity vs. dermatophytes (MIC/MFC); assay type: cell-based; conditions: T. mentagrophytes (n = 15)
[13] = system: Enterobacter faecalis 29212; assay: In vitro Antibacterial Activity; assay type: cell-based
[14] = system: T. rubrum; assay: In vitro antifungal activity vs. dermatophytes (MIC/MFC); assay type: cell-based; conditions: T. rubrum (n = 15)
[15] = system: yeasts; assay: MFC range over yeasts tested; assay type: cell-based, Candida and Malassezia strains; conditions: Table 13 strains
Text: The fungal isolates tested in this study to evaluate the antifungal activity of (Z)-14-([…]-11,13-diynoic acid, 14-([…]-11,13-diynoic acid, (Z)-14-([…]-11,13-diynoic acid, potassium salt and comparators are clinical isolates collected from patients and deposited at the culture collection of the Center for Medical Mycology. Tested isolates included: Candida albicans, C. glabrata, C. guilliermondii, C. krusei, C. lipolytica, C. lusitaniae, C. parapsilosis, C. tropicalis and Malassezia furfur. Dermatophyte strains included Trichophyton rubrum, T. mentagrophytes, T. tonsurans, T. terrestre, Epidermophyton floccosum, Microsporum canis, M. cookie, M. gallinae, M. gypseum, and M. vanbreuseghemii. […] The plates were then streaked with an inoculating loop to remove the cells from the drug source.

[16] = system: Trichophyton tonsurans; assay: In vitro antifungal activity vs. dermatophytes (MIC/MFC); assay type: cell-based; conditions: Trichophyton tonsurans (n = 15)
[17] = system: C. krusei; assay: In vitro antifungal activity vs. yeasts (MIC/MFC); assay type: cell-based; conditions: Pichia kudriavzevii, C. krusei (n = 1)
[18] = system: C. guilliermondii; assay: In vitro antifungal activity vs. yeasts (MIC/MFC); assay type: cell-based; conditions: Meyerozyma guilliermondii, C. guilliermondii (n = 1)
[19] = system: Staphylococcus aureus 29213; assay: In vitro Antibacterial Activity; assay type: cell-based; conditions: read-out: MIC90
[20] = system: (1,3)β-Glucan Synthase; assay: Inhibition of fungal cell wall synthesis enzymes; assay type: biochemical
Text: (§3) Specific inhibitors of each enzyme served as positive controls (Cilofungin, a β-glucan synthase inhibitor and nikkomycin Z, a chitin synthase inhibitor).

[21] = system: Chitin Synthase; assay: Inhibition of fungal cell wall synthesis enzymes; assay type: biochemical
Text: as §3

[22] = system: M. vanbreuseghemii; assay: In vitro antifungal activity vs. dermatophytes (MIC/MFC); assay type: cell-based; conditions: M. vanbreuseghemii (n = 1)
[23] = system: all Candida strains; assay: MIC range over all Candida strains tested; assay type: cell-based; conditions: Table 13 strains

O=C([O-])CCCCCCC/C=C\C#CC#Cc1ccco1.[K+] [Compound IV″, potassium (Z)-14-(furan-2-yl)tetradeca-9-en-11,13-diynoate]
decrease of kidney fungal burden ([1]; 5 mg/kg per dose): 88%
decrease of kidney fungal burden ([1]; 10 mg/kg per dose): 94%
MIC90/MIC range 48 h ([2]; MIC90, 48 h): 30 ng/mL
MIC90 ([2]; Blastomyces dermatitidis, CLSI M38-A2, 50% growth reduction, MIC read at 96 h): 30 ng/mL
moisture uptake behaviour ([3]; GVS): takes up very little moisture until it reaches approximately 70-80% RH
moisture uptake in weight ([3]; at 90% RH): 28%
MIC90/MIC range 48 h ([4]; Coccidioides spp. (n = 30), MIC90): 30 ng/mL
MIC90 ([4]; Coccidioides, 48 h): 30 ng/mL
MIC90/MIC range 48 h ([5]; H. capsulatum (n = 20), MIC90, 48 h): 30 ng/mL
MIC90 ([5]; Histoplasma capsulatum, 120 h): 30 ng/mL
MIC50 [6]: 2560 ng/mL
MIC90/MIC range 48 h ([7]; A. flavus (n = 5), MIC range, 48 h): >5120 ng/mL
MIC50 ([7]; Aspergillus flavus, 24 h): > 5120 ng/mL

O=C(O)CCCCCCC/C=C\C#CC#Cc1ccco1 [Compound III″]
MFC range against dermatophytes [8]: <0.06 to 16000 ng/mL
MIC range against all dermatophyte strains [8]: <0.06 to 1000 ng/mL
MIC ([9]; 96 h, 35° C., 4 days): < 0.06 ng/mL
MFC [9]: 16000 ng/mL (≈ 56300 nM)
MIC90/MIC range 48 h ([9]; 48 h): <0.06 ng/mL
MFC [10]: < 0.06 ng/mL
MIC ([10]; 90% inhibition endpoint, read-out: MIC): < 0.06 ng/mL
growth of spores germinated in the absence of drug [11]: effectively inhibited the subsequent growth of spores
MIC90/MIC range 48 h ([12]; MIC90, 48 h): <0.06 ng/mL
MIC ([12]; Trichophyton mentagrophytes, 96 h, 35° C., 4 days): < 0.06 ng/mL
MFC ([12]; Trichophyton mentagrophytes): 0.1 ng/mL (≈ 0.352 nM)
MIC90 [13]: 12500 ng/mL (≈ 44000 nM)
MIC90/MIC range 48 h ([14]; MIC90, 48 h): <0.06 ng/mL
MIC ([14]; Trichophyton rubrum, 96 h, 35° C., 4 days): < 0.06 ng/mL
MFC ([14]; Trichophyton rubrum): < 0.06 ng/mL
MFC range against yeasts [15]: <0.06 to 32000 ng/mL
MIC ([16]; 96 h, 35° C., 4 days): < 0.06 ng/mL
MFC [16]: < 0.06 ng/mL
MIC90/MIC range 48 h ([16]; MIC90, 48 h): <0.06 ng/mL
MFC [17]: 1 ng/mL (≈ 3.52 nM)
MIC ([17]; 90% inhibition endpoint): 0.5 ng/mL (≈ 1.76 nM)
MFC [18]: 0.5 ng/mL (≈ 1.76 nM)
MIC ([18]; 90% inhibition endpoint): < 0.06 ng/mL
MIC90 [19]: 50000 ng/mL (≈ 176000 nM)
% Inhibition, (1,3)β-Glucan Synthase ([20]; 10 μg/ml): 0%
% Inhibition, (1,3)β-Glucan Synthase ([20]; 100 μg/ml): 73%
% Inhibition, (1,3)β-Glucan Synthase ([20]; 400 μg/ml): 90%
% Inhibition, Chitin Synthase ([21]; 10 μg/ml): 16%
% Inhibition, Chitin Synthase ([21]; 100 μg/ml): 85%
% Inhibition, Chitin Synthase ([21]; 500 μg/ml): 97%
concentrations at which the enzymes were inhibited ([21]; chitin synthase and β-glucan synthase): > 100 µg/mL
MIC ([22]; 96 h, 35° C., 4 days): 30 ng/mL (≈ 106 nM)
MFC [22]: 16000 ng/mL (≈ 56300 nM)
MIC90/MIC range 48 h ([22]; 48 h): 30 ng/mL (≈ 106 nM)
MIC range for all Candida strains [23]: <0.06 to 4000 ng/mL
